Converted amounts (≈) assume the structure as drawn. Read-outs that look alike come from different tables or passages of the source.
Experiments:
cytochrome P450 [1] = assay: Metabolism of luciferin derivatives in cultured silkworm midgut (P450-Glo, luminometer); format: in vitro ADME, Bombyx mori (silkworm); conditions: silkworm midgut incubated with luciferin substrate at 30 °C
cytochrome P450 [2] = assay: 7-ethoxycoumarin deethylation activity in silkworm tissue culture (fluorometry); format: in vitro ADME, Bombyx mori (silkworm)
Protocol: Figure 2 Tissue specificity of 7-ethoxycoumarin deethylation activity in silkworm. (A) The midgut, fat body, silk gland, and Malpighian tubule were extirpated from silkworms and incubated in medium containing 7-ethoxycoumarin at 30 °C. Medium was collected, extracted by acetone, and evaporated. Samples […] in 50 mM NaOAc buffer (pH 6.0) were treated with beta-glucosidase. The amount of 7-hydroxycomarin, a metabolite, was determined by fluorometry. (B) Inhibition of 7-ethoxycoumarin deethylation by cimetidine in the silkworm midgut. Silkworm midgut was incubated in medium containing 7-ethoxycoumarin and cimetidine at 30 °C. Samples were collected, extracted by acetone, and treated with beta-glucosidase. The amount of 7-hydroxycomarin was determined by fluorometry.
Samples for HPLC were dissolved in 50% methanol.

cytochrome P450 [3] = assay: Decay of cytochrome P450 substrates in in vitro culture of the silkworm midgut (HPLC); conditions: for HPLC peak area of substrate: midgut culture, raw data of Fig. 3
Protocol: Silkworm midgut was incubated in medium with cytochrome P450 substrates at 30 °C. The samples were collected, extracted by acetone, and evaporated. The amounts of substrates were determined by HPLC analysis.
Silkworms (5th instar, 5 days) were dissected in a buffer (10 mM HEPES/NaOH, 0.9% NaCl, pH 7.9), and isolated organs were incubated with 3 mL TC-100 medium containing 10% fetal bovine serum, 50 µg/ml gentamicin, and substrates for the metabolic reaction. Whole samples (medium and organ) were homogenized and extracted by equal volumes of acetone followed by evaporation. Extracted samples were dissolved in 50 mM NaOAc buffer and treated with beta-glucosidase to measure the fluorescence of metabolized 7-ethoxycoumarin[6]. […] Samples for HPLC were dissolved in 50% methanol. HPLC analysis was performed using a PEGASIL ODS SP column (φ4.5 mm × 250 mm) with isocratic elution at a flow rate of 1 ml/min.

[4] = Pharmacokinetics of antibiotics in silkworm hemolymph after injection (HPLC); conditions: for HPLC peak area in hemolymph: silkworm (Bombyx mori)
Protocol: Antibiotics were injected into silkworm hemolymph and hemolymph was collected by cutting the legs at the indicated time.
Antibiotics dissolved in saline were injected into the hemolymph of 5th instar silkworms using a 1-mL syringe attached to a 27 G needle. Hemolymph was harvested from abdominal appendages by cutting them with scissors at the indicated time-points after administration, and mixed with an equal volume of acetone. Samples were centrifuged at 15,000 rpm for 5 min at 4 °C, and the supernatants were evaporated with a centrifuge evaporator[18]. The dried materials were dissolved in 50% methanol and filtrated through a 0.45-µm filter. […] The amount of antibiotics in the sample was quantified from the peak area of the chromatogram.

Candida albicans [5] = assay: Antifungal activity (MIC) by micro dilution with or without silkworm hemolymph; format: cell-based
Protocol: Antimicrobial and antifungal activities of each compound were measured by a micro dilution method[19],[20]. To measure protein binding to antifungal activity, silkworm hemolymph was collected by cutting the pseudopodium using scissors, and centrifuged at 3000 rpm for 5 min at 4 °C.

Candida albicans [6] = assay: Silkworm infection model with Candida albicans (ED50); format: in vivo, Bombyx mori (silkworm)
[7] = dog, cited from earlier work
[8] = Protein-binding capacity in silkworm hemolymph (filter unit, HPLC); conditions: silkworm hemolymph
[9] = in vivo, 10 mg/kg; cited from earlier work

| Structure (SMILES) | Cltot (total body clearance) ([4]; in vivo) [mL/g/h] | Time-course of the decrease in concentration in hemolymph (in words) ([4]; in vivo) | HPLC peak area in hemolymph ([4]; in vivo, 0.1 min) | HPLC peak area in hemolymph ([4]; in vivo, 1 min) | HPLC peak area in hemolymph ([4]; in vivo, 5 min) | HPLC peak area in hemolymph ([4]; in vivo, 10 min) | HPLC peak area in hemolymph ([4]; in vivo, 20 min) | HPLC peak area in hemolymph ([4]; in vivo, 30 min) | HPLC peak area in hemolymph ([4]; in vivo, 60 min) | HPLC peak area in hemolymph ([4]; in vivo, 120 min) | HPLC peak area in hemolymph ([4]; in vivo, 180 min) | HPLC peak area in hemolymph ([4]; in vivo, 240 min) | further results |
| --- | --- | --- | --- | --- | --- | --- | --- | --- | --- | --- | --- | --- | --- |
| O=C(O)C1CSC(c2nc3ccc(OCc4c(F)c(F)c(F)c(F)c4F)cc3s2)=N1 (stereo not shown) [Luciferin-PFBE] |  |  |  |  |  |  |  |  |  |  |  |  | Production of luciferin (RFU/organ) (cytochrome P450 [1]): 229,000 RFU/organ |
| CCOc1ccc2ccc(=O)oc2c1 [7-ethoxycoumarin] |  |  |  |  |  |  |  |  |  |  |  |  | Tissue with the highest capacity to metabolize the compound (in words) (cytochrome P450 [2]; midgut, fat body, silk gland, Malpighian tubule in organ culture): the midgut, not the fat body, had the highest capacity to metabolize |
| C[C@]12CC[C@H]3[C@@H](CCC4=CC(=O)CC[C@@]43C)[C@@H]1CC[C@@H]2O [Testosterone] |  |  |  |  |  |  |  |  |  |  |  |  | Metabolism in the silkworm midgut (in words) (cytochrome P450 [3]; in vitro organ culture, up to 20 h incubation): metabolized in the silkworm midgut; HPLC peak area of substrate (cytochrome P450 [3]; 0 h): 3160000; HPLC peak area of substrate (cytochrome P450 [3]; 1 h): 1620000; HPLC peak area of substrate (cytochrome P450 [3]; 4 h): 1110000; HPLC peak area of substrate (cytochrome P450 [3]; 20 h): 1210000 |
| CN/C(=N/CCSCc1nc[nH]c1C)NC#N [cimetidine] |  |  |  |  |  |  |  |  |  |  |  |  | Inhibition of 7-ethoxycoumarin deethylation in the silkworm midgut (in words) (cytochrome P450 [2]; midgut incubated with 7-ethoxycoumarin and cimetidine at 30 °C): inhibited this reaction in the midgut |
| OC(Cn1cncn1)(Cn1cncn1)c1ccc(F)cc1F [Fluconazole] | 0.02 | biphasic | 4424583 | 3714240 | 1821531 | 2367593 | 2257323 | 2040721 | 1663340 | 1440231 | 1474050 | 1455753 | half-life ([4]; hemolymph): 12 h; HPLC peak area in hemolymph ([4]; in vivo, 105 min): 1575678; HPLC peak area in hemolymph ([4]; in vivo, 360 min): 1088734; MIC (Candida albicans [5]; read-out: MIC with 10% hemolymph (B), with 10% silkworm hemolymph): 3.2 µg/mL (≈ 10.4 µM); MIC (Candida albicans [5]; without silkworm hemolymph, read-out: MIC without hemolymph (A)): 0.4 µg/mL (≈ 1.31 µM); Therapeutic effect in the silkworm infection model (in words) (Candida albicans [6]; silkworm infection model): potent therapeutic effects at a low dose; ED50 (Candida albicans [6]; silkworm infection model with Candida albicans): 0.7 mg/kg; Vdss ([7]; dose 10 mg/kg): 0.7 mL/g; t1/2 ([7]; dose 10 mg/kg): 13.0 h; Cltot ([7]; in vivo, 10 mg/kg): 0.04 mL/g/h; fraction unbound at 10 min, 10 µM [8]: 0.35 |
| O=C(N[C@H](CO)[C@H](O)c1ccc([N+](=O)[O-])cc1)C(Cl)Cl [Chloramphenicol] | 0.15 | biphasic | 10505876 | 8079061 | 4188656 | 3076056 | 2727973 | 1928231 | 2239912 | 1803643 | 1414738 | 1202608 | half-life ([4]; in vivo): 6 h; HPLC peak area in hemolymph ([4]; in vivo, 90 min): 1941121; Cltot [9]: 0.24 mL/g/h |

Reference: paper PMC6602958, “Pharmacokinetics of anti-infectious reagents in silkworms” (Scientific Reports, 2019)
